# Measurements reported in PubChem BioAssay (NCI).
# Values joined by “and” are separate entries in the source; they are usually repeats but may differ in a detail not shown here. Identical values can stand only once.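 Test compounds were applied to cells in 96-well plates for 48 hours at 5 doses. TGI marks complete inhibition of growth.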
# Tests used:
# Assay in all cases: NCI anticancer screen, dose series, 48 h
# [1] = test system: SF-295 CNS
# [2] = test system: SN12C renal
# [3] = test system: LOX IMVI melanoma
# [4] = test system: NCI-H522 lung
# [5] = test system: SW-620 colon
# [6] = test system: ACHN renal
# [7] = test system: OVCAR-8 ovarian
# [8] = test system: HCT-116 colon
# [9] = test system: RPMI-8226 leukemia
# [10] = test system: UACC-257 melanoma
# [11] = test system: M14 melanoma
Compound,TGI [1],TGI [2] [µM],TGI [3] [µM],TGI [4] [µM],TGI [5] [µM],TGI [6] [µM],TGI [7],TGI [8] [µM],TGI [9] [µM],TGI [10] [µM],TGI [11] [µM]
Cc1sc2nc3n(c(=O)c2c1C)N=C(c1ccc([N+](=O)[O-])cc1)CS3,> 100 µM,> 100,> 100,> 100,> 100,> 100,> 100 µM,> 100,> 100,> 100,
COC[C@@H](Cc1ccc(OC)c(OC)c1)[C@@H](COC)Cc1ccc(OC)c(OC)c1,> 100 µM,> 100,> 100,> 100,> 100,> 100,> 100 µM,> 100,,> 100,> 100
CCC1(O)CC(OC2CC(N(C)C)C(OC3CC(O)C(OC4CCC(=O)C(C)O4)C(C)O3)C(C)O2)c2c(O)c3c(c(O)c2C1C(=O)OC)C(=O)c1cccc(O)c1C3=O (centres undefined),0.121 µM and 0.33 µM,0.175,,0.0549,0.0394,,0.9 µM and 0.187 µM,,0.0755,0.0915,0.013
O=[N+]([O-])c1cc(Cl)ccc1S(=O)(=O)N1CCCc2cc(Cl)ccc21,> 100 µM,> 100,> 100,,> 100,> 100,> 100 µM,> 100,> 100,83.7,> 100
O=C(NN=C1CCCCC1)NN=C1CCCCC1,> 100 µM,> 100,> 100,,> 100,,> 100 µM,> 100,,> 100,> 100
N=C(c1cccs1)C1(N2CCCCC2)CCCCC1,39.7 µM,88.6,47.9,30.9,34.7,30.5,,> 100,33.8,31.8,47.4
C[N+](C)(N)c1nc(N)c(C#N)c(C#N)c1C#N,> 10 µM,> 10,> 10,> 10,> 10,> 10,> 10 µM,> 10,> 10,,> 10
CC1(C)C2CCC(N)(C2)C1O (centres undefined),> 100 µM,> 100,> 100,,> 100,> 100,> 100 µM,> 100,> 100,> 100,> 100
CN(C)c1ccc(/C=c2/c3cc([N+](=O)[O-])ccc3n3c2cc(-c2ccccc2)[n+]3C)cc1,7.51 µM,,,1.9,2.75,19.6,27.7 µM,5.84,1.72,,2.66
C=CCC(SC)C1=C(C)C(=O)c2ccccc21 (centres undefined),> 10 µM,> 10,> 10,,> 10,> 10,> 10 µM,,> 10,> 10,> 10
CN(CCO)/N=N/c1[nH]ncc1C(N)=O,> 100 µM,> 100,> 100,> 100,> 100,,> 100 µM,> 100,> 100,> 100,
COP(C)(=O)C(Cc1c[nH]c2ccccc12)NC(=O)OCc1ccccc1 (centres undefined),> 100 µM,> 100,> 100,,> 100,> 100,> 100 µM,> 100,> 100,> 100,> 100
COc1ccc(N2C(=O)C3CC4=CC(=O)C[C@H]4[C@H]32)cc1 (some centres undefined),> 100 µM,> 100,> 100,,> 100,> 100,> 100 µM,> 100,> 100,> 100,> 100
c1ccc(C2[C@@H]3CCCc4ccccc4C3=NN2c2ccccc2)cc1 (some centres undefined),> 100 µM,> 100,> 100,> 100,> 100,> 100,> 100 µM,> 100,> 100,> 100,
CC(=O)OCC1OC(N2C(S)=C(C#N)C(c3ccco3)C(C(C)=O)=C2c2ccccc2)C(OC(C)=O)C(OC(C)=O)C1OC(C)=O (centres undefined),94 µM,> 100,> 100,> 100,> 100,,> 100 µM,> 100,> 100,> 100,> 100
C#CCCCC(=O)N(C(=O)CS(=O)CC)c1ccccc1 (centres undefined),> 100 µM,> 100,> 100,> 100,> 100,> 100,> 100 µM,> 100,,> 100,> 100
OC(c1ccccc1)(c1cccnc1)C(O)(c1ccccc1)c1cccnc1 (centres undefined),> 100 µM,> 100,,> 100,> 100,> 100,> 100 µM,> 100,> 100,> 100,> 100
OC(CN1CCCCC1)c1ccc(/C=C/c2ccc(Cl)cc2)cc1 (centres undefined),> 100 µM,> 100,,72.7,> 100,> 100,> 100 µM,> 100,> 100,46.7,41.9
Cc1cc(O)c(C(C)C)cc1N=Cc1ccccc1O,26.6 µM,12.2,> 84.3,17.2,> 20.4,23.9,> 29.6 µM,13.5,,24.4,31.4
Cc1cccc(NC2=NCCO2)c1Cl,> 100 µM,> 100,,,> 100,> 100,> 100 µM,> 100,> 100,> 100,> 100
CC1CC[C@@]2(OC1)OC1C[C@H]3[C@@H]4CCC5CC(O)CC[C@]5(C)[C@H]4C/C(=N\N(C)C)[C@]3(C)C1[C@@H]2C (some centres undefined),,64.7,> 100,,> 100,> 100,,60.3,> 100,> 100,> 100
Nc1ccc(-c2nc3ccccc3s2)cc1Br,> 100 µM,> 100,> 100,> 100,> 100,> 100,> 100 µM,,> 100,> 100,> 100
